We go through three molecules from patent US20250197437A1, “CANNABINOID COMPLEXES WITH IMPROVED PROPERTIES” (KEMIJSKI INŠTITUT, priority 2022, published 2025).

The term solubility denotes how much of the substance goes into solution per volume.

This data set is described as follows: Water solubility test of cannabinoid:glucosamine complexes and pure cannabinoids (HPLC of supernatant). The class given is physicochemical. Conditions: thermodynamic from solid. As to the method:
If considered necessary, sonication can also be applied. Afterwards, the solution is centrifuged at 3.000 g for 3 minutes and the supernatant is transferred to a HPLC vial. Concentration of dissolved cannabinoids is determined by analysis on an Agilent 1260 Infinity (Santa Clara, CA, USA) HPLC system. The chromatographic method is adapted from the literature (Križman, 2019). In short, the separation is performed on a Phenomenex (Torrance, CA, USA) Luna C18 (2) (octadecyl silica) chromatographic column, with dimensions 150 mm×3 mm i.d., 3 μm particle size, and temperature set at 37° C. Mobile phase is isocratic consisting of water/acetonitrile with a ratio of 9:31 (v/v), with 0.1% formic acid (v/v) and 10 mM ammonium formate, at a flow rate of 0.8 mL/min and injection volume 5 μL. The UV detection wavelength is 275 nm. The concentration of cannabinoids is determined using an external standard method.
For water solubility studies, 1-1.5 mg of the prepared complex was mixed with 1 mL of distilled water and stirred for 5-10 min, if necessary also sonication was applied. Afterwards the solution was centrifuged at 3.000 g for 3 minutes and the supernatant was transferred to the vials. Concentration of dissolved cannabinoids was determined by HPLC-DAD system (Agilent 1260 Infinity, Santa Clara, CA, USA).

[1] abbreviates: 1-1.5 mg sample in 1 mL distilled water, stirred 5-10 min, centrifuged, HPLC, printed as greater-than/less-than bounds, read-out: Water solubility of cannabinoid.

Where two headings read alike, the source gives them in different places.

Where the note is “water”, `CCCCCc1cc(O)c(C/C=C(\C)CCC=C(C)C)c(O)c1` [CBG, cannabigerol] returned a solubility below 1 µg/mL.
In the case of `C=C(C)[C@@H]1CCC(C)=C[C@H]1c1c(O)cc(CCCCC)cc1O` [CBD, cannabidiol], the solubility under setting [1] is below 1 µg/mL.
Regarding `C=C(C)[C@@H]1CCC(C)=C[C@H]1c1c(O)cc(CCCCC)c(C(=O)O)c1O` [CBDA, cannabidiolic acid], the solubility under setting [1] was below 2 µg/mL.
